# Measurements from US20250154472A1, “Culture Medium for Expanding Breast Epithelial Stem Cells” (Koninklijke Nederlandse Akademie Van Wetenschappen, priority 2014, published 2025).
# Tests used:
# Assay type in all cases: cell-based, human
# [1] = test system: mammary tumor organoid line W854T; assay: Low throughput drug screen, cell viability (CellTiter-Glo 2.0), W854T; conditions: 7 days, 1 nM-30 μM, 96-well
# Protocol: (§1) Organoids were photographed every 3-4 days (FIG. 8) and cell viability measured at day 7 using the CellTiter-Glo 2.0 assay (G9241, Promega) (FIG. 9).
# (§2) All three organoid lines respond to Iressa at concentrations ˜10 μM indicating a dependence on EGFR signaling. […] Mammary tumor organoids are suitable for cell viability based low throughput drug screens in a 96-well format. We are currently testing the assay in a 384-well plate format which has been successfully established for colon cancer organoids.
# [2] = test system: mammary tumor organoid line W854T; assay: Organoid growth in medium containing Nutlin-3; conditions: 5 μM Nutlin-3
# [3] = test system: mammary tumor organoid line W859T; assay: Low throughput drug screen, cell viability (CellTiter-Glo 2.0), W859T; conditions: 7 days, 1 nM-30 μM, 96-well
# Protocol: as §1, §2
# [4] = test system: mammary tumor organoid line W855T; assay: Low throughput drug screen, cell viability (CellTiter-Glo 2.0), W855T; conditions: 7 days
# Protocol: as §1, §2
SMILES,concentration at which organoids respond (growth/viability) [1] [µM],growth in medium containing the p53 stabilizer [2],concentration at which organoids respond (growth/viability) [3] [µM],growth inhibition at concentrations up 30 μM [4],"concentration at which organoids respond (growth/viability) ([4]; 1 nM-30 μM, 96-well) [µM]"
COc1ccc(C2=N[C@@H](c3ccc(Cl)cc3)[C@@H](c3ccc(Cl)cc3)N2C(=O)N2CCNC(=O)C2)c(OC(C)C)c1 [Nutlin-3],> 30,readily grew,> 30,perhaps the exception,
COc1cc2ncnc(Nc3ccc(F)c(Cl)c3)c2cc1OCCCN1CCOCC1 [Iressa],~10,,~10,,~10
